The first experiment addresses T1, acetylcholine muscarinic M1 receptor (CHOnfat/hM1 cells) (Homo sapiens, UniProt P11229).
T1 construct: expressed in transfected cells; host or cells: CHOnfat (CHO cells; selected with Geneticin)
T1 sequence (P11229 1-460): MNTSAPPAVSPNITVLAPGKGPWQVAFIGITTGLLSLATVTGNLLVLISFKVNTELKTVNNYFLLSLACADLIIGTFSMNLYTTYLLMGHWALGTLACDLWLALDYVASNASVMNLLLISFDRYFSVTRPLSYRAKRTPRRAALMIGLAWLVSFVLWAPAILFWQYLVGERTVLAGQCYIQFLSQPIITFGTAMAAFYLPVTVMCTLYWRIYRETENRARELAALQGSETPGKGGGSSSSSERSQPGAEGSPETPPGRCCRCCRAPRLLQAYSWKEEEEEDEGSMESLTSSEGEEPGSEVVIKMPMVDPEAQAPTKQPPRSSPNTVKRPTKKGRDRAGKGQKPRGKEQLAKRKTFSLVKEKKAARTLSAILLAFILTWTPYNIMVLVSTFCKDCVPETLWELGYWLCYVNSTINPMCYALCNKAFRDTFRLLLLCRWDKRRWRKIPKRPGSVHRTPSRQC
In words: FLIPR intracellular calcium assay for M1 positive allosteric modulator activity (acetylcholine EC20). In kind it is cell-based.
Settings: not given
On the procedure: The assay studies the effect of one or several concentrations of test compounds on basal or acetylcholine-stimulated Ca^2+ levels using FLIPR.
Compounds are prepared and subjected to a preincubation period of 4 min. Thereafter, a single EC20 concentration of acetylcholine is added to each well (3 nM final). The intracellular Ca^2+ level of each sample is measured and compared to an acetylcholine control to determine any modulatory activity.
Cells: CHOnfat/hM1, hM2, hM3 or hM4 cells are plated 24 hr before the assay at a density of 18,000 cells/well (100 μL) in a 384 well plate. CHOnfat/hM1 and CHOnfat/hM3 Growth Medium: 90% DMEM (Hi Glucose); 10% HI FBS; 2 mM L-glutamine; 0.1 mM NEAA; Pen-Strep; and 1 mg/ml Geneticin, are added. For M2Gqi5CHOnfat and M4Gqi5CHOnfat cells, an additional 600 μg/ml hygromycin is added.
Equipment: 384 well plate, 120 μL addition plate; 96-well Whatman 2 ml Uniplate Incubator, 37° C., 5% CO2; Skatron EMBLA-384 Plate Washer; Multimek Pipetting System; Genesis Freedom 200 System; Mosquito System; Temo Nanoliter Pipetting System; and FLIPR^384 Fluorometric Imaging Plate Reader System are used.
Buffers. Assay Buffer: Hanks Balanced Salt Solution, with 20 mM Hepes, 2.5 mM Probenecid (Sigma P-8761) first dissolved in 1 N NaOH, 1% Bovine Serum Albumin (Sigma A-9647). Dye Loading Buffer: Assay Buffer plus 1% Fetal Bovine Serum and Fluo-4AM/Pluronic Acid Mixture. 2 mM Fluo-4AM ester stock in DMSO (Molecular Probes F-14202) Concentration of 2 μM in buffer for a final concentration of 1 μM in Assay. 20% Pluronic Acid Solution stock, with concentration of 0.04% in Buffer, 0.02% in Assay.
65 μL of 2 mM Fluo-4AM are mixed with 130 μL of 20% Pluronic Acid. The resulting solution and 650 μL FBS is added to the assay buffer for a total volume of 65 mL. Positive Controls: 4-Br-A23187: 10 mM in DMSO; final concentration 10 μM. Acetylcholine: 10 mM in water, working stock at both 20 μM and 30 μM in assay buffer, final concentration of 10 μM. This is used to check the maximum stimulation of the CHOK1/hM1 cells. 20 μM (2×) acetylcholine is added in the preincubation part of the assay, and the 30 μM (3×) stock is added in the second part. (EC20) Acetylcholine: 10 mM in water, working stock of 9 nM (3×), and final concentration in assay is 3 nM. This is used after the preincubation with test compounds. Addition of the EC20 Acetylcholine to each well with a test compound will ascertain any modulator activity. 24 wells contain 3 nM Acetylcholine alone as a control.
Screening Plate: Compounds are titrated in 96-well plates (columns 2-11), 100% DMSO, started at a concentration of 15 mM (150× stock concentration), and 3-fold serial dilutions using Genesis Freedom200 System. Four 96-well plates are combined into a 384-well plate using Mosquito Nanoliter Pipetting System by transferring 1 μl of serial diluted compounds to each well, and 1 mM acetylcholine (100× stock concentration) were added as a control. Using Temo, 49 μl assay buffer is added to each well of the 384-well plate right before assay.
In a 96-well Whatman 2 ml Uniplate, 9 nM Acetylcholine (3×) is pipetted into wells corresponding to the screening compounds, and into control wells. The 30 μM acetylcholine control (3×) is added into control wells, and the 3× agonist plate is transferred into a 384 well plate.
Cells are washed three times with 100 μL of buffer, leaving 30 μL of buffer in each well. Using Multimek, 30 μL of Dye Loading Buffer is added into each well and incubated at 37° C., 5% CO2 for up to one hr.
After 60 min, the cells are washed three times with 100 μL of buffer, leaving 30 μL of buffer in each well. The cell plate, screening plate, and agonist addition plates are placed on the platform in the FLIPR and the door closed. A signal test to check background fluorescence and basal fluorescence signal is performed. Laser intensity is adjusted if necessary. […]
A general note: Calcium flux is commonly read through the fluorescence of an indicator in the cells.
Regarding `N#CC1(c2ccccc2)CCN(Cc2cc(C(=O)N[C@@H]3CCOC[C@H]3O)c(=O)n3ccccc23)CC1` [Example 9, 1-[(4-Cyano-4-phenylpiperidin-1-yl)methyl]-N-[(3S,4R)-3-hydroxytetrahydro-2H-pyran-4-yl]-4-oxo-4H-quinolizine-3-carboxamide], the EC50 amounted to 530 nM.
Take `N#CC1(c2cc(CF)ccn2)CCN(Cc2cc(C(=O)N[C@H]3CCCC[C@@H]3O)c(=O)n3ccccc23)CC1` [Example 23, 1-({4-Cyano-4-[4-(fluoromethyl)pyridine-2-yl]piperidin-1-yl}methyl)-N-[(1S,2S)-2-hydroxycyclohexyl]-4-oxo-4H-quinolizine-3-carboxamide]: the EC50 stood at 34 nM.
As for `N#CC1(c2ncc(Br)cc2Br)CCN(Cc2cc(C(=O)N[C@H]3CCOC[C@@H]3O)c(=O)n3ccccc23)CC1` [Example 10, 1-{[4-Cyano-4-(3,5-dibromopyridin-2-yl)piperidin-1-yl]methyl}-N-[(3R,4S)-3-hydroxytetrahydro-2H-pyran-4-yl]-4-oxo-4H-quinolizine-3-carboxamide], the EC50 is 14 nM.
For the compound `C[C@]1(O)CCCC[C@@H]1NC(=O)c1cc(CN2CCC(C#N)(c3ccccn3)CC2)c2ccccn2c1=O` (racemic) [Example 14, rac-1-[(4-Cyano-4-pyridin-2-ylpiperidin-1-yl)methyl]-N-[(1R,2R)-2-hydroxy-2-methylcyclohexyl]-4-oxo-4H-quinolizine-3-carboxamide], the EC50 turned out to be 93 nM.

The same experiment, now with this note: CHOnfat/hM1 cells, 4 min preincubation, then EC20 acetylcholine (3 nM final), FLIPR Ca2+; read-out: IP Value (inflection point).
As to `N#CC1(c2ccccn2)CCN(Cc2cc(C(=O)NC3CCOCC3)c(=O)n3ccccc23)CC1` [Example 1, 1-[(4-Cyano-4-pyridin-2-ylpiperidin-1-yl)methyl]-4-oxo-4H—N-(tetrahydro-2H-pyran-4-yl)-4H-quinolizine-3-carboxamide], the EC50 was determined as 340 nM.
On to `Cn1cc(N2CCN(Cc3cc(C(=O)N[C@H]4CCCC[C@@H]4O)c(=O)n4ccccc34)CC2=O)cn1` [Example 6, N-[(1S,2S)-2-Hydroxycyclohexyl]-1-{[4-(1-methyl-1H-pyrazol-4-yl)-3-oxopiperazin-1-yl]methyl}-4-oxo-4H-quinolizine-3-carboxylate], for which the EC50 worked out at 170 nM.
In the case of `O=C(N[C@H]1CCCC[C@@H]1O)c1cc(Cc2ccc(Br)cn2)c2ccccn2c1=O` [Example 2, 1-[(5-Bromopyridin-2-yl)methyl]-N-[(1S,2S)-2-hydroxycyclohexyl]-4-oxo-4H-quinolizine-3-carboxamide], the EC50 amounted to 105 nM.
The same measure, in the same setting: the same measure for `Cn1cc(-c2ccc(Cc3cc(C(=O)N[C@H]4CCCC[C@@H]4O)c(=O)n4ccccc34)nc2)cn1` [Example 3, N-[(1S,2S)-2-Hydroxycyclohexyl]-{-[5-(1-methyl-1H-pyrazol-4-yl)pyridine-2-yl]methyl}-4-oxo-4H-quinolizine-3-carboxamide]: 15 nM.
On to `N#CC1(c2ccccn2)CCN(Cc2cc(C(=O)N[C@H]3COCC[C@@H]3O)c(=O)n3ccccc23)CC1` (racemic) [Example 8, rac-1-[(4-Cyano-4-pyridin-2-ylpiperidin-1yl)methyl]-N-[(3R,4R)-4-hydroxytetrahydro-2H-pyran-3-yl]-4-oxo-4H-quinolizine-3-carboxamide], for which the EC50 was found to be 220 nM.
Same read-out and setting: the result for `N#Cc1ccnc(C2(C#N)CCN(Cc3cc(C(=O)N[C@H]4CCCC[C@@H]4O)c(=O)n4ccccc34)CC2)c1` [Example 22, 1-{[4-Cyano-4-(4-cyanopyridin-2-yl)piperidin-1-yl]methyl}-N-[(1S,2S)-2-hydroxycyclohexyl]-4-oxo-4H-quinolizine-3-carboxamide] reads 280 nM; that for `C[S@@+]([O-])[C@H]1CCCC[C@@H]1NC(=O)c1cc(CN2CCC(C#N)(c3ccccn3)CC2)c2ccccn2c1=O` (racemic) [Example 17, rac-1-[(4-Cyano-4-pyridin-2-ylpiperidin-1-yl)methyl]-N-{(1R,2R)-2-[(S)-methylsulfinyl]cyclohexyl}-4-oxo-4H-quinolizine-3-carboxamide], 2600 nM; that for `CS(=O)(=O)[C@H]1CCCC[C@@H]1NC(=O)c1cc(CN2CCC(C#N)(c3ccccn3)CC2)c2ccccn2c1=O` (racemic) [Example 18, rac-1-[(4-Cyano-4-pyridin-2-ylpiperidin-1-yl)methyl]-N-[(1R,2R)-2-(methylsulfonyl)cyclohexyl]-4-oxo-4H-quinolizine-3-carboxamide], 800 nM.
In the case of `N#CC1(c2ccccn2)CCN(Cc2cc(C(=O)N[C@@H]3CCCCC3=O)c(=O)n3ccccc23)CC1` [Example 15, 1-[(4-Cyano-4-pyridin-2-ylpiperidin-1-yl)methyl]-4-oxo-N-[(1R)-2-oxocyclohexyl]-4H-quinolizine-3-carboxamide], the EC50 was 660 nM.
In the case of `CS[C@H]1CCCC[C@@H]1NC(=O)c1cc(CN2CCC(C#N)(c3ccccn3)CC2)c2ccccn2c1=O` (racemic) [Example 16, rac-1-[(4-Cyano-4-pyridin-2-ylpiperidin-1-yl)methyl]-N-[(1R,2R)-2-(methylthio)cyclohexyl]-4-oxo-4H-quinolizine-3-carboxamide], the EC50 is 180 nM.
The same measure, in the same setting: the result for `Cc1cccn2c(=O)c(C(=O)NC3CCOCC3)cc(CN3CCC(C#N)(c4ccccn4)CC3)c12` [Example 25, 1-[(4-Cyano-4-pyridin-2-ylpiperidin-1-yl)methyl]-9-methyl-4-oxo-N-(tetrahydro-2H-pyran-4-yl)-4H-quinolizine-3-carboxamide] reads 2100 nM; that for `O=C(N[C@H]1CCCC[C@@H]1O)c1cc(Cc2ccc(-n3cccn3)cn2)c2ccccn2c1=O` [Example 4, N-[(1S,2S)-2-Hydroxycyclohexyl]-4-oxo-1-{[5-(1H-pyrazol-1-yl)pyridine-2-yl]methyl}-4H-quinolizine-3-carboxamide], 444 nM.
Regarding `N#CC1(c2ccccn2)CCN(Cc2cc(C(=O)N[C@H]3CCCC[C@@H]3Br)c(=O)n3ccccc23)CC1` (racemic) [Example 13, rac-N-[(1R,2R)-2-Bromocyclohexyl)-1-[(4-cyano-4-pyridin-2-ylpiperidin-1-yl)methyl]-4-oxo-4H-quinolizine-3-carboxamide], the EC50 amounted to 480 nM.
Turning to `COC(=O)N1CCC(NC(=O)c2cc(CN3CCC(C#N)(c4ccccn4)CC3)c3ccccn3c2=O)CC1` [Example 20, Methyl 4-[({1-[(4-cyano-4-pyridin-2-ylpiperidin-1-yl)methyl]-4-oxo-4H-quinolizin-3-yl}carbonyl)amino]piperidine-1-carboxylate], the EC50 turned out to be 600 nM.

Source of the values: US8754220B2, “Quinolizidinone carboxamide M1 receptor positive allosteric modulators” (Merck Sharp & Dohme Corp., priority 2009, dated 2014).
